Measured values: patent US20250057793A1, “BENZOIC ACID SALTS FOR TREATMENT OF NERVOUS SYSTEM INJURIES AND DISORDERS” (The United States Government as represented by the …, priority 2021, published 2025)

Columns and labels:
[1] = tested on: CCI-induced TBI mice; experiment: Glial activation and iNOS in brain of CCI-induced TBI mice (immunofluorescence, Western blot); conditions: cortex and hippocampus
[2] = tested on: CCI-injured mice; experiment: Rotarod test in CCI-injured mice; assay type: in vivo, mouse; conditions: 50 mg/kg/day oral
Experimental: The forehindlimb motor coordination and balance in animals was observed using the rotarod test as described in earlier studies. Briefly, each mouse was placed on the confined section of the rod and trial was initiated with a smooth increase in speed from 4 rpm to 40 rpm for 5 mins. […] The latency to fall was measured in seconds and used for the analysis. Following the CCI injury, each mouse performed the task three trials during the testing sessions and the average score on these three trials was used as the individual rotarod score. Each trial on the rod was terminated when the mice fell off the rod or held on to the rod by hanging and completed improper revolutions.

[3] = tested on: mice with traumatic brain injury (TBI); experiment: Remyelination in corpus callosum of mice with TBI (PLP/A2B5 double-labeling); assay type: in vivo, mouse; conditions: 50 mg/kg body weight/day oral gavage
Experimental: FIG. 4 are images of the corpus collosum in mice showing the levels of proteolipid protein (PLP) and A2B5, a marker of oligodendroglial progenitor cells (OPC), in the experimental conditions after 21 days. Oral administration of sodium benzoate (NaB), but not sodium formate (NaFO), stimulates remyelination in mice with traumatic brain injury (TBI). Mice (n=6 per group) were induced moderate TBI by controlled cortical impact (CCI). Starting from 2 hours after TBI, mice were treated with NaB and NaFO (50 mg/kg body weight/day; mixed with water) orally via gavage. After 21 d of treatment, brain sections were double-labeled for PLP and A2B5.
Proteolipid protein (PLP) is a marker of oligodendrocytes and A2B5 is a marker of oligodendroglial progenitor cells (OPC). After 21 days of treatment, brain sections were double-labeled with antibodies against PLP and A2B5.

[4] = tested on: CCI-injured mice; experiment: Grid runway in CCI-injured mice; assay type: in vivo, mouse; conditions: 7 day post-injury, 50 mg/kg/day oral
Text: The grid runway (65 cm length×8 cm breadth×1 cm intervals) made of parallel grid bars with interbar intervals of 1 cm apart and grid were kept above the surface on a table during the testing session. The soft padding was positioned under the grid run-way in the event for protection to avoid serious injury, if the animal falls from the grid. Each mouse was allowed to walk freely on grid and the time taken and number of steps to cross the runway was noted. Each successful foot placement on grid was recorded as a step. However, an error was considered whenever the paw slips through the grid or the paw misses a bar and extends downwards through the plane of bars. The locomotor behavior of animal on grid was evaluated by an observer blinded to the treatment on 7th and 21st day after CCI injury.

[5] = tested on: TBI mice; experiment: Barnes maze test in TBI mice; assay type: in vivo, mouse; conditions: NOR, Barnes maze and T maze, 21 days, 50 mg/kg/day oral
Experimental: The Barnes maze test was performed as described in our earlier studies. Briefly, the mice were initially trained for 2 consecutive days followed by examination on day 3. After each training session, maze and escape tunnel were thoroughly cleaned with a mild detergent to avoid instinctive odor avoidance due to mouse's odor from the familiar object. On day 3, a video camera (Basler Gen I Cam—Basler acA 1300-60) connected to a Noldus computer system was placed above the maze and was illuminated with high voltage light that generated enough light and heat to motivate animals to enter into the escape tunnel. The performance was monitored by the video tracking system (Noldus System). Cognitive behavior parameters were examined by measuring latency (duration before all four paws were on the floor of the escape box) and errors (incorrect response before all four paws were on the floor of the escape box).

[6] = tested on: CCI-induced TBI mice; experiment: Lesion volume in CCI-induced mice (Cavalieri stereology); assay type: in vivo, mouse
Experimental: FIG. 5C is a plot showing lesion size in the experimental conditions. Lesion size was quantitatively measured in control mice, untreated CCI injured mice, NaB treated CCI-mice and NaFO-treated CCI-mice at 21 days post-injury. Statistical analyses were performed with Student's t-test in the injured side of the brain [^ap<0.001 (5.623×10^−7) vs control; ^bp<0.001 (=0.001) vs CCI injury].
FIGS. 10A-10C. Decrease in lesion volume in TBI mice by GTB treatment. […] FIG. 10A. […] FIG. 10C. Lesion volume was quantified in all groups of mice. Statistical analyses were performed with two way ANOVA and expressed as mean±SD to compare the lesion volume between unlesioned and lesioned side of the brain.
The estimation of lesion volume was performed based on the Cavalieri method of unbiased stereology using the StereoInvestigator software (MicroBright Biosciences, USA). Both the ipsilateral and contralateral hemisphere of brain volumes were determined using the Cavalieri estimator with a 1 mm grid spacing 1 mm. Every fourth section was analyzed beginning from a random start point. Lesion volume was estimated by subtracting the volume of the ipsilateral hemisphere from that of the contralateral hemi-sphere. Then the volume of lesion cavity estimated in brain section of untreated mice was compared with lesion volume of brain sections of drug treated mice.

[7] = tested on: oligodendroglial progenitor cells (OPCs); experiment: Maturation of oligodendroglial progenitor cells (OPCs) into oligodendrocytes; assay type: cell-based, mouse; conditions: 100 μM, 18 h, serum-free, absence of FGF and PDGF
Experimental: FIGS. 15A-15L: Effect of sodium benzoate (NaB) on the maturation of oligodendroglial progenitor cells (OPCs) into oligodendrocytes. OPCs were isolated from P1˜P2 neonatal mouse pups, cultured in OPC media for 4 days in vitro (DIV) followed by treatment with 100 μM NaB and sodium formate (NaFO) in the absence of FGF and PDGF.
FIG. 15A) After 18 h of 100 μM NaB treatment in serum-free condition, cells were fixed and then dual immuno-stained with MBP (red) and OPC marker NG2 (green). Nuclei were stained with DAPI (blue). FIG. 15B) Similarly, OPCs were stained with PLP (red) and A2B5 (green) under similar treatment condition. Quantification of MBP+(FIG. 15C), NG2+(FIG. 15D), PLP+(FIG. 15E), and A2B5+(FIG. 15F) cells as a percentage of total cells (DAPI+). Average 5 fields per slide, total 3 slides. Results are mean+SEM. ***p<0.001. FIG. 15G) For protein expression, cells were treated with different doses of NaB for 18 h under serum free condition and then immunoblotted with PLP and MOG. FIG. 15H) Densitometric analyses of the bands relative to beta actin were done for PLP and MOG. ^ap<0.001 vs. control PLP; ^bp<0.005 vs. control MOG. FIG. 151) Cells were treated with NaB (100 μM) and NaFO (100 μM) for 4 h under serum-free condition followed by monitoring the mRNA expression of myelin-specific genes by real-time PCR (ap<0.01 vs. control PLP; ^bp<0.01 vs. control MOG; cp<0.01 vs. control MBP; dp<0.01 vs. control CNPase). OPCs were cultured on the top of randomly-oriented polycaprolactone nanofibers (Nanofiber Solutions; Cat #Z694576) for 7 days. After that, these cells were treated with 100 μM NaB (FIG. 15J) and NaFO (K) for additional 2 days followed by immunofluorescence analysis for MBP (red) (FIG. 15J, control; FIG. 15K, NaB; FIG. 15L, NaFO). […] Representative 3D constructed images of OPCs adhered to nanofibers were also shown at the right side.

[8] = tested on: OPCs cultured on polycaprolactone nanofibers; experiment: Myelination of synthetic polycaprolactone nanofibers by OPCs; assay type: cell-based, mouse; conditions: 100 μM, 2 days after 7 days culture on nanofibers
Experimental: FIG. 15A) After 18 h of 100 μM NaB treatment in serum-free condition, cells were fixed and then dual immuno-stained with MBP (red) and OPC marker NG2 (green). Nuclei were stained with DAPI (blue). FIG. 15B) Similarly, OPCs were stained with PLP (red) and A2B5 (green) under similar treatment condition. Quantification of MBP+(FIG. 15C), NG2+(FIG. 15D), PLP+(FIG. 15E), and A2B5+(FIG. 15F) cells as a percentage of total cells (DAPI+). Average 5 fields per slide, total 3 slides. Results are mean+SEM. ***p<0.001. FIG. 15G) For protein expression, cells were treated with different doses of NaB for 18 h under serum free condition and then immunoblotted with PLP and MOG. FIG. 15H) Densitometric analyses of the bands relative to beta actin were done for PLP and MOG. ^ap<0.001 vs. control PLP; ^bp<0.005 vs. control MOG. FIG. 151) Cells were treated with NaB (100 μM) and NaFO (100 μM) for 4 h under serum-free condition followed by monitoring the mRNA expression of myelin-specific genes by real-time PCR (ap<0.01 vs. control PLP; ^bp<0.01 vs. control MOG; cp<0.01 vs. control MBP; dp<0.01 vs. control CNPase). OPCs were cultured on the top of randomly-oriented polycaprolactone nanofibers (Nanofiber Solutions; Cat #Z694576) for 7 days. […]

[9] = tested on: primary mouse astrocytes; experiment: Proinflammatory cytokine production in primary mouse astrocytes (ELISA); assay type: cell-based; conditions: cinnamein 6 h, 50 μg/ml poly IC, serum-free, 24 h
Experimental: FIGS. 22A-22B. Cinnamein inhibits the production of proinflammatory cytokines from polyIC-stimulated primary mouse astrocytes. Astrocytes preincubated with different concentrations of cinnamein for 6 h were stimulated with 50 μg/ml poly IC under serum-free condition. After 24 h of stimulation, levels of TNFα (FIG. 22A) and IL-6 (FIG. 22B) were measured in supernatants by ELISA. Results are mean+SD of three independent experiments. *p<0.05; **p<0.01; ***p<0.001.

[10] = tested on: primary mouse microglia; experiment: Proinflammatory cytokine production in primary mouse microglia (ELISA); assay type: cell-based; conditions: cinnamein 6 h, serum-free, 24 h
Experimental: FIGS. 19A-19B. Cinnamein inhibits LPS- and polyIC-induced production of TNFα in primary mouse microglia. Microglia isolated from 2d old mouse pups were incubated with different concentrations of cinnamein for 6 h followed by stimulation with either 1 μg/ml LPS (FIG. 19A) or 50 μg/ml polyIC (FIG. 19B) under serum-free condition. After 24 h of stimulation, the level of TNFα was measured in supernatants by ELISA. Results are mean+SD of three independent experiments. *p<0.05; **p<0.01; ***p<0.001; NS, not significant.
FIGS. 20A-20B. Cinnamein suppresses the production of IL-1j3 from LPS- and poly IC-stimulated primary mouse microglia. Cells preincubated with different concentrations of cinnamein for 6 h were stimulated with either 1 μg/ml LPS (FIG. 20A) or 50 μg/ml polyIC (FIG. 20B) under serum-free condition. After 24 h of stimulation, the level of […] was measured in supernatants by ELISA. Results are mean+SD of three independent experiments. ***p<0.001.
FIGS. 21A-21B. Cinnamein decreases LPS- and polyIC-induced production of IL-6 in primary mouse microglia. Microglia were incubated with different concentrations of cinnamein for 6 h followed by stimulation with either 1 μg/ml LPS (FIG. 21A) or 50 μg/ml polyIC (FIG. 21B) under serum-free condition. After 24 h of stimulation, the level of IL-6 was measured in supernatants by ELISA. Results are mean+SD of three independent experiments. ***p<0.001.

[11] = tested on: mouse RAW 264.7 macrophages; experiment: NO production from stimulated RAW 264.7 macrophages (nitrite, Griess reagent); assay type: cell-based; conditions: cinnamein pretreatment 6 h, serum-free, 24 h; for LPS-induced production of NO (nitrite): 1 μg/ml LPS; for IFNγ-induced production of NO (nitrite): 25 U/ml IFNγ
Experimental: FIGS. 18A-18C. Cinnamein inhibits the induction of NO production from LPS- and IFNγ-stimulated mouse RAW 264.7 macrophages. FIG. 18A) Cells preincubated with different concentrations of cinnamein for 6 h were stimulated with 1 μg/ml LPS under serum-free condition. After 24 h of stimulation, the level of nitrite was measured in supernatants by Griess reagent. FIG. 18B) Cells preincubated with 400 μM cinnamein for different hours were stimulated with 1 μg/ml LPS under serum-free condition. After 24 h of stimulation, the level of nitrite was measured in supernatants. FIG. 18C) Cells preincubated with different concentrations of cinnamein for 6 h were stimulated with 25 U/ml IFNγ under serum-free condition. After 24 h of stimulation, the level of nitrite was measured in supernatants. Results are mean+SD of three independent experiments. *p<0.05; **p<0.01; ***p<0.001; NS, not significant.

[12] = day 7 post-injury, 50 mg/kg/day oral from 24 h after CCI
[13] = 1 μg/ml LPS, listed as Cinnamein
[14] = 50 μg/ml polyIC, listed as Cinnamein

O=C[O-].[Na+] [NaFO, sodium formate]
iNOS / iNOS-positive cells ([1]; day 7, 50 mg/kg/day oral): not | GFAP-positive astrocytes [1, 12]: remained unable to inhibit glial activation | Iba1-positive microglia [1, 12]: remained unable to inhibit glial activation | latency to fall on rotarod ([2]; 7 day post-injury): not | latency to fall on rotarod ([2]; 21 day post-injury): not | level of PLP in corpus callosum ([3]; 21 days of treatment): remained unable to restore | number of OPCs (A2B5 positive) in corpus callosum ([3]; 21 days of treatment): remained unable | remyelination ([3]; 21 d of treatment): not | gait movement on grid runway (steps, time taken, foot misplacement) [4]: not | hippocampus-dependent behaviors / cognitive performance [5]: remained unable to improve | total lesion volume / size of lesion cavity ([6]; cresyl violet sections, 21 days post-injury, 50 mg/kg/day oral): not | structural-tissue integrity of damaged hippocampus ([6]; oral treatment started 24 h after CCI): remained unable to exhibit such protection | differentiation/maturation of OPCs into oligodendrocytes (MBP+, PLP+, NG2+, A2B5+ cells) [7]: did not promote | myelination of synthetic fibers (MBP immunofluorescence) [8]: not

O=C(/C=C/c1ccccc1)OCc1ccccc1 [cinnamein, Cinnamein]
polyIC-induced production of IL-6 [9]: inhibited | polyIC-induced production of TNFα [9]: inhibited | polyIC-induced production of IL-6 ([9]; listed as Cinnamein): inhibits | polyIC-induced production of TNFα ([9]; listed as Cinnamein): inhibits | LPS-induced production of IL-6 ([10]; 1 μg/ml LPS): strongly inhibited | LPS-induced production of TNFα ([10]; 1 μg/ml LPS): strongly inhibited | production of IL-1β ([10]; 1 μg/ml LPS): strongly inhibited | LPS-induced production of IL-6 [10, 13]: decreases | LPS-induced production of TNFα [10, 13]: inhibits | production of IL-1β [10, 13]: suppresses | polyIC-induced production of IL-6 ([10]; 50 μg/ml polyIC): strongly inhibited | polyIC-induced production of TNFα ([10]; 50 μg/ml polyIC): strongly inhibited | production of IL-1β ([10]; 50 μg/ml polyIC): strongly inhibited | polyIC-induced production of IL-6 [10, 14]: decreases | polyIC-induced production of TNFα [10, 14]: inhibits | production of IL-1β [10, 14]: suppresses | LPS-induced production of NO (nitrite) [11]: significantly inhibited | LPS-induced production of NO (nitrite) ([11]; listed as Cinnamein): inhibits | IFNγ-induced production of NO (nitrite) [11]: significantly inhibited | IFNγ-induced production of NO (nitrite) ([11]; listed as Cinnamein): inhibits
